The values below come from ChEMBL document CHEMBL1159153, “Synthesis and biological activity of 3,4,5-trihydroxy etoposide” (Bioorg Med Chem Lett, 1993).

The subject of assay [1] is Mus musculus. Kind of assay: Long time survivors of mice alive/total on day 30 after administration (60 mg/kg per injection) intraperitoneally on days 1 and 5; 2 survived out of 4 mice. Format: functional.
Assay [2] deals with Mus musculus. The experiment in a line: Long-time survivors of mice alive/total on day 30 after administration (60 mg/kg per injection) intraperitoneally on days 1 and 5. Format: functional.
Assay [3] deals with Mus musculus. Kind of assay: Long time survivors of mice alive/total on day 30 after administration of the compound; 1 survived out of 4 mice. Format: functional.
Assay [4] relates to Mus musculus. The experiment in a line: Long time survivors of mice alive/total on day 30 after administration of the compound; 3 survived out of 4 mice. Format: functional.
For assay [5], the system named is Mus musculus. Kind of assay: Tested for percent median survival time of drug-treated mice compared to saline -treated control at a dose of 120 mg/kg intraperitoneally. Format: functional. As to conditions: route intraperitoneal.
Assay [6] deals with Mus musculus. Kind of assay: Tested for percent median survival time of drug-treated mice compared to saline -treated control at a dose of 80 mg/kg intraperitoneally. Format: functional. As to conditions: route intraperitoneal.
Assay [7] relates to Mus musculus. Kind of assay: Tested for percent median survival time of drug-treated mice compared to saline -treated control at a dose of 40 mg/kg intraperitoneally. Format: functional. As to conditions: route intraperitoneal.
For assay [8], the system named is Mus musculus. The experiment in a line: Tested for percent median survival time of drug-treated mice compared to saline -treated control at a dose of 75 mg/kg intraperitoneally. Format: functional. Particulars: route intraperitoneal.
Assay [9] has as its system Mus musculus. The experiment in a line: Tested for percent median survival time of drug-treated mice compared to saline -treated control at a dose of 150 mg/kg intraperitoneally. Format: functional. As to conditions: route intraperitoneal.
For assay [10], the system named is Mus musculus. The experiment in a line: Long-time survivors of mice alive/total on day 30 after administration (100 mg/kg) intraperitoneally on days 5 and 8 (experiment 1). The class given is functional.
For another assay, the system named is HCT cell line. The experiment in a line: Compound was evaluated for in vitro cytotoxicity against HCT/VP35 cells. Format: functional, cell-based. As to conditions: Homo sapiens.
The next assay relates to HCT-116. The experiment in a line: Tested for in vitro cytotoxicity against HCT116 cells. Format: functional, cell-based. As to conditions: Homo sapiens.
Assay [11] has as its system Mus musculus. The experiment in a line: Tested for percent median survival time of drug-treated mice compared to saline -treated control at a dose of 38 mg/kg intraperitoneally. The class given is functional. As to conditions: route intraperitoneal.
The nature of assay [12]: Ratio of inhibition of HCT116 to that of inhibition of HCT/VP 35 cells. The class given is functional, HCT-116.
The test system of assay [13] is Mus musculus. Kind of assay: Tested for percent median survival time of drug-treated mice compared to saline -treated control at a dose of 100 mg/kg intraperitoneally. Format: functional. As to conditions: route intraperitoneal.
Assay [14] has as its system Mus musculus. The experiment in a line: Tested for percent median survival time of drug-treated mice compared to saline -treated control at a dose of 50 mg/kg intraperitoneally. Format: functional. Particulars: route intraperitoneal.
Assay [15] relates to Mus musculus. The experiment in a line: Long time survivors of mice alive/total on day 30 after administration (60 mg/kg per injection) intraperitoneally on days 1 and 5; 4 survived out of 4 mice. Format: functional.
Assay [16] has as its system Mus musculus. The experiment in a line: Tested for percent median survival time of drug-treated mice compared to saline -treated control at a dose of 25 mg/kg intraperitoneally. The class given is functional. Particulars: route intraperitoneal.

≈ marks a conversion by molar mass, not a printed value.

Regarding `COC1=CC([C@@H]2c3cc4c(cc3[C@@H](O[C@@H]3O[C@@H]5CO[C@@H](C)O[C@H]5[C@H](O)[C@H]3O)[C@H]3COC(=O)[C@@H]32)OCO4)=CC(=O)C1=O`, the figures for the LTS in the assay with Mus musculus [1], in the assay on Mus musculus [3] and in the assay with Mus musculus [4] were 2, above 1 and 3, respectively. The same compound displayed a Max T/C with Mus musculus [2] above 595%. Moreover, the figures for the T/C in the assay on Mus musculus [5], in the assay on Mus musculus [6] and with Mus musculus [7] were 447, above 621 and 274, respectively.

For the compound `C[C@@H]1OC[C@H]2O[C@@H](O[C@@H]3c4cc5c(cc4[C@@H](c4cc(O)c(O)c(O)c4)[C@H]4C(=O)OC[C@@H]43)OCO5)[C@H](O)[C@@H](O)[C@@H]2O1`, the T/C in the assay with Mus musculus [8] is on record as 130; in the assay on Mus musculus [9], 150; in the assay on Mus musculus [11], 100. The Max T/C with Mus musculus [10] came out at 230%. In addition, the IC50 with HCT cell line stood at 68.9 µg/mL (≈ 123 µM); in the assay on HCT-116, 79 µg/mL (≈ 141 µM). The Ratio in assay [12] is recorded as 0.87.

As to `COc1cc([C@@H]2c3cc4c(cc3[C@@H](O[C@@H]3O[C@@H]5CO[C@@H](C)O[C@H]5[C@H](O)[C@H]3O)[C@H]3COC(=O)[C@H]23)OCO4)cc(O)c1O`, the results for the T/C with Mus musculus [13], in the assay with Mus musculus [14] and in the assay with Mus musculus [16] were 344, above 413 and 250, respectively. Also, the Max T/C in the assay on Mus musculus [2] is above 563%. In addition, the LTS with Mus musculus [3] is recorded as 1; in the assay on Mus musculus [4], 2; in the assay on Mus musculus [15] it was 4. This compound registered an IC50 in the assay with HCT-116 of 35 µg/mL (≈ 60.9 µM).

As to `COc1cc([C@@H]2c3cc4c(cc3[C@@H](O[C@@H]3O[C@@H]5CO[C@@H](C)O[C@H]5[C@H](O)[C@H]3O)[C@H]3COC(=O)[C@H]23)OCO4)cc(OC)c1O` [ETOPOSIDE], the IC50 was determined as 5.2 µg/mL (≈ 8.84 µM) with HCT cell line and 0.35 µg/mL (≈ 0.595 µM) in the assay with HCT-116. For the same compound, the Ratio in [12] is recorded as 15.

By IC50 is commonly meant the midpoint of a concentration-inhibition curve. High values mean weaker potency, low ones greater potency.
